From US20230085307A1, “PYRIDAZINONE COMPOUND AND HERBICIDE” (NISSAN CHEMICAL CORPORATION, priority 2019, published 2023)
Values belong to the compound of their own block, whether it stands above or below them.

Tests used:
[1] = test system: false cleavers; test: Test Example 4: herbicidal effect by soil treatment (Table 19, symbol Q); type: in vivo, false cleavers (Galium spurium)
Summary of the method: (§1)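 Scoring uses the grading scale of an earlier test, three weeks post-application. Treatment consists of spraying a diluted emulsion formulation across the surface of sterilized diluvial soil in which seeds are buried near 1.5 cm deep; boxes are kept in a greenhouse between 25° C. and 30° C.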

[2] = test system: false cleavers; test: Test Example 5: herbicidal effect by foliage application, plastic box (Table 20, symbol Q); type: in vivo, false cleavers (Galium spurium); conditions: foliage application; for herbicidal effect grade, Q: false cleavers / effect on false cleavers (Q) / herbicidal effect on Q: false cleavers: 320 g/ha; for effect on false cleavers (Q): 3 weeks after application; for herbicidal effect on Q: false cleavers / Q: false cleavers, herbicidal effect (criteria 0-5): evaluated three weeks after application
Summary of the method: (§2)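 Post-emergence foliar test in sterilized diluvial soil. Compound applied as water-diluted emulsion at a predetermined rate to 14-day-old plants; evaluation at three weeks.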

[3] = test system: transplanted rice; test: Test Example 1: effect on crop, application before weed generation under submerged conditions (Table 16, symbol a); type: in vivo; conditions: 320 g/ha applied herbicide
Text: [Test Example 1] Herbicidal Activity Test by Application before Weed Generation under Submerged Conditions After alluvial soil was placed into 1/10000 are of Wagner pot, water was poured and mixed to form a submerged condition having a water depth of 4 cm. Seeds of late watergrass, Japanese bulrush, and oval-leafed pondweed were sowed in a mixed manner in the aforementioned pot, and then 2.5 leaf stage rice plant seedlings were transplanted thereto. On the day of sowing seeds, the emulsion agent of the compound of the present invention prepared according to Formulation Example 2 was diluted with water so as to achieve a predetermined herbicide amount, and the diluted emulsion agent was applied to the surface of the water. The pot was placed in a greenhouse at 25° C. to 30° C. for growth of the plants. Three weeks after the herbicide application, the effect of the herbicide on each plant was evaluated according to the following criteria. Evaluation Criteria 5: Herbicidal rate of 90% or more (almost completely withered) 4: Herbicidal rate of 70% or more and less than 90% 3: Herbicidal rate of 40% or more and less than 70% 2: Herbicidal rate of 20% or more and less than 40% 1: Herbicidal rate of 5% or more and less than 20% 0: Herbicidal rate of 5% or less (almost no effect)

[4] = test system: directly sowed rice; test: Test Example 3: effect on crop by foliage application, Wagner pot (Table 18, symbol b); type: in vivo; conditions: 320 g/ha
Summary of the method: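 Plants were sown in alluvial soil held under 0.1–0.5 cm standing water and grown 14 days in a greenhouse at 25–30 °C. An emulsifiable formulation, water-diluted to the set dose, was then sprayed onto the foliage, and effects were scored three weeks later using previously defined criteria.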

[5] = test system: corn; test: Test Example 4: effect on crop by soil treatment (Table 19, symbol c); type: in vivo
Summary of the method: as §1

[6] = test system: soybean; test: Test Example 4: effect on crop by soil treatment (Table 19, symbol d); type: in vivo
Summary of the method: as §1

[7] = test system: wheat; test: Test Example 4: effect on crop by soil treatment (Table 19, symbol e); type: in vivo
Summary of the method: as §1

[8] = test system: beet; test: Test Example 4: effect on crop by soil treatment (Table 19, symbol f); type: in vivo
Summary of the method: as §1

[9] = test system: rapeseed; test: Test Example 4: effect on crop by soil treatment (Table 19, symbol g); type: in vivo
Summary of the method: as §1

[10] = test system: corn; test: Test Example 5: effect on crop by foliage application, plastic box (Table 20, symbol c); type: in vivo; conditions: 320 g/ha
Summary of the method: as §2

[11] = test system: soybean; test: Test Example 5: effect on crop by foliage application, plastic box (Table 20, symbol d); type: in vivo; conditions: 320 g/ha
Summary of the method: as §2

[12] = test system: wheat; test: Test Example 5: effect on crop by foliage application, plastic box (Table 20, symbol e); type: in vivo; conditions: 320 g/ha
Summary of the method: as §2

[13] = test system: beet; test: Test Example 5: effect on crop by foliage application, plastic box (Table 20, symbol f); type: in vivo; conditions: 320 g/ha
Summary of the method: as §2

[14] = test system: rapeseed; test: Test Example 5: effect on crop by foliage application, plastic box (Table 20, symbol g); type: in vivo; conditions: 320 g/ha
Summary of the method: as §2

[15] = amount of applied herbicide 320 g/ha

SMILES: CCCOc1ccc(-c2sc3ccccc3c2-c2c(O)c(C)nn(C)c2=O)cc1 [1-019]
herbicidal effect rating, Q: false cleavers [1, 15]: 0 (Herbicidal rate of 5% or less (almost no effect)) | herbicidal effect grade, Q: false cleavers ([2]; three weeks after application): 3 (Herbicidal rate of 40% or more and less than 70%)

SMILES: Cc1nn(C)c(=O)c(-c2c(-c3ccc(OC(C)C)cc3)sc3ccccc23)c1O [1-020]
herbicidal effect rating, Q: false cleavers [1, 15]: 0 (Herbicidal rate of 5% or less (almost no effect))

SMILES: CCCCOc1ccc(-c2sc3ccccc3c2-c2c(O)c(C)nn(C)c2=O)cc1 [1-024]
herbicidal effect rating, Q: false cleavers [1, 15]: 0 (Herbicidal rate of 5% or less (almost no effect)) | herbicidal effect grade, Q: false cleavers ([2]; three weeks after application): 4 (Herbicidal rate of 70% or more and less than 90%)

SMILES: CCCCOc1ccc(-c2sc3ccccc3c2-c2c(OC(=O)CCC)c(C)nn(C)c2=O)cc1 [1-025]
herbicidal effect rating, Q: false cleavers [1, 15]: 0 (Herbicidal rate of 5% or less (almost no effect)) | herbicidal effect grade, Q: false cleavers ([2]; three weeks after application): 3 (Herbicidal rate of 40% or more and less than 70%)

SMILES: CCCC(=O)Oc1c(C)nn(C)c(=O)c1-c1c(-c2ccc(SC)cc2)sc2ccccc12 [1-037]
herbicidal effect rating, Q: false cleavers [1, 15]: 0 (Herbicidal rate of 5% or less (almost no effect))

SMILES: Cc1nn(C)c(=O)c(-c2c(-c3ccc4c(c3)OCCO4)sc3ccccc23)c1O [1-089]
herbicidal effect rating, Q: false cleavers [1, 15]: 5 (Herbicidal rate of 90% or more (almost completely withered))

SMILES: C=CCOc1ccccc1-c1sc2ccccc2c1-c1c(O)c(C)nn(C)c1=O [1-110]
Q: false cleavers, herbicidal effect ([2]; AAH 320 g/ha, three weeks after application): 5 (Herbicidal rate of 90% or more (almost completely withered))

SMILES: Cc1nn(C)c(=O)c(-c2c(-c3ccc(OCC(F)F)cc3)sc3ccccc23)c1O [1-203]
effect on false cleavers (Q) [2]: 5 (Herbicidal rate of 90% or more (almost completely withered))

SMILES: Cc1nn(C)c(=O)c(-c2c(-c3ccc(F)cc3)sc3ccc(F)cc23)c1O [2-001]
effect on false cleavers (Q) [2]: 5 (Herbicidal rate of 90% or more (almost completely withered))

SMILES: CCCC(=O)Oc1c(C)nn(C)c(=O)c1-c1c(-c2ccc(OC)cc2)sc2ccc(F)cc12 [2-027]
herbicidal effect rating, Q: false cleavers ([1]; 320 g/ha): 0 (Herbicidal rate of 5% or less (almost no effect)) | effect on false cleavers (Q) [2]: 0 (Herbicidal rate of 5% or less (almost no effect))

SMILES: CCCOc1ccc(-c2sc3ccc(F)cc3c2-c2c(OC(=O)CCC)c(C)nn(C)c2=O)cc1 [2-033]
effect on false cleavers (Q) [2]: 5 (Herbicidal rate of 90% or more (almost completely withered))

SMILES: CCCC(=O)Oc1c(C)nn(C)c(=O)c1-c1c(-c2ccc(OC(C)C)cc2)sc2ccc(F)cc12 [2-035]
effect on false cleavers (Q) [2]: 4 (Herbicidal rate of 70% or more and less than 90%)

SMILES: CCCC(=O)Oc1c(C)nn(C)c(=O)c1-c1c(-c2ccc3c(c2)OCO3)sc2ccc(F)cc12 [2-091]
herbicidal effect on Q: false cleavers [2]: 4 (Herbicidal rate of 70% or more and less than 90%)

SMILES: COc1ccccc1-c1sc2ccc(Cl)cc2c1-c1c(O)c(C)nn(C)c1=O [2-101]
Q: false cleavers, herbicidal effect rating [1, 15]: 5 (Herbicidal rate of 90% or more (almost completely withered)) | herbicidal effect on Q: false cleavers [2]: 5 (Herbicidal rate of 90% or more (almost completely withered))

SMILES: C=CCOC(=O)Oc1c(C)nn(C)c(=O)c1-c1c(-c2ccc(OC(F)F)cc2)sc2ccc(F)cc12 [2-294]
Q: false cleavers, herbicidal effect (criteria 0-5) ([2]; AAH 320 g/ha): 5 (Herbicidal rate of 90% or more (almost completely withered))

SMILES: COc1cccc(S(=O)(=O)Oc2c(C)nn(C)c(=O)c2-c2c(-c3ccc(OC(F)F)cc3)sc3ccc(F)cc23)c1 [2-313]
Q: false cleavers, herbicidal effect (criteria 0-5) ([2]; AAH 320 g/ha): 5 (Herbicidal rate of 90% or more (almost completely withered))

SMILES: Cc1nn(C)c(=O)c(-c2c(-c3ccc(CSCC(F)(F)F)cc3)sc3ccc(F)cc23)c1O [2-331]
herbicidal effect on Q: false cleavers [1, 15]: 0 (Herbicidal rate of 5% or less (almost no effect))

SMILES: COc1ccccc1-c1sc2cc(C)ccc2c1-c1c(O)c(C)nn(C)c1=O [3-049]
Q: false cleavers, herbicidal effect grade ([1]; amount of applied herbicide 274 g/ha): 3 (Herbicidal rate of 40% or more and less than 70%) | Q: false cleavers, herbicidal effect grade ([2]; 274 g/ha, three weeks after application): 5 (Herbicidal rate of 90% or more (almost completely withered))

SMILES: CCOc1ccccc1-c1sc2cc(OC)ccc2c1-c1c(O)c(C)nn(C)c1=O [3-070]
Q: false cleavers, herbicidal effect grade ([1]; amount of applied herbicide 80 g/ha): 1 (Herbicidal rate of 5% or more and less than 20%) | Q: false cleavers, herbicidal effect grade ([2]; 80 g/ha, three weeks after application): 5 (Herbicidal rate of 90% or more (almost completely withered))

SMILES: CCCC(=O)Oc1c(C)nn(C)c(=O)c1-c1c(-c2ccc(F)cc2OCC)oc2ccc(C)cc12 [9-010]
herbicidal effect on false cleavers (Q) ([2]; 246 g/ha, three weeks after application): 3 (Herbicidal rate of 40% or more and less than 70%)

melting point: 240 to 242 °C
SMILES: Cc1nn(C)c(=O)c(-c2c(-c3ccc(C#N)cc3)sc3ccccc23)c1O [Compound No. 1-045, 5-hydroxy-2,6-dimethyl-4-(2-(4-cyanophenyl)benzo[b]thiophen-3-yl)pyridazin-3(2H)-one]
Effect on crop a: transplanted rice (grade 0-5) [3]: 0 (Herbicidal rate of 5% or less (almost no effect)) | effect on crop b (directly sowed rice), rating 0-5 [4]: 0 (Herbicidal rate of 5% or less (almost no effect)) | herbicidal effect rating, Q: false cleavers [1, 15]: 4 (Herbicidal rate of 70% or more and less than 90%) | effect rating on crop, c: corn [5, 15]: 0 (Herbicidal rate of 5% or less (almost no effect)) | effect rating on crop, d: soybean [6, 15]: 3 (Herbicidal rate of 40% or more and less than 70%) | effect rating on crop, e: wheat [7, 15]: 0 (Herbicidal rate of 5% or less (almost no effect)) | effect rating on crop, f: beet [8, 15]: 5 (Herbicidal rate of 90% or more (almost completely withered)) | effect rating on crop, g: rapeseed [9, 15]: 5 (Herbicidal rate of 90% or more (almost completely withered)) | herbicidal effect grade, Q: false cleavers ([2]; three weeks after application): 5 (Herbicidal rate of 90% or more (almost completely withered)) | effect on crop grade, c: corn ([10]; three weeks after application): 0 (Herbicidal rate of 5% or less (almost no effect)) | effect on crop grade, d: soybean ([11]; three weeks after application): 1 (Herbicidal rate of 5% or more and less than 20%) | effect on crop grade, e: wheat ([12]; three weeks after application): 0 (Herbicidal rate of 5% or less (almost no effect)) | effect on crop grade, f: beet ([13]; three weeks after application): 5 (Herbicidal rate of 90% or more (almost completely withered)) | effect on crop grade, g: rapeseed ([14]; three weeks after application): 5 (Herbicidal rate of 90% or more (almost completely withered))

melting point: 258 to 259 °C
SMILES: Cc1nn(C)c(=O)c(-c2c(-c3ccc(Cl)cc3)sc3ccc(F)cc23)c1O [Compound No. 2-010, 4-(2-(4-chlorophenyl)-5-fluorobenzo[b]thiophen-3-yl)-5-hydroxy-2,6-dimethylpyridazin-3(2H)-one]
Effect on crop a: transplanted rice (grade 0-5) [3]: 0 (Herbicidal rate of 5% or less (almost no effect)) | effect on crop b (directly sowed rice), rating 0-5 [4]: 0 (Herbicidal rate of 5% or less (almost no effect)) | effect rating on crop, c: corn ([5]; 320 g/ha): 0 (Herbicidal rate of 5% or less (almost no effect)) | effect rating on crop, d: soybean ([6]; 320 g/ha): 0 (Herbicidal rate of 5% or less (almost no effect)) | effect rating on crop, e: wheat ([7]; 320 g/ha): 0 (Herbicidal rate of 5% or less (almost no effect)) | effect rating on crop, f: beet ([8]; 320 g/ha): 3 (Herbicidal rate of 40% or more and less than 70%) | effect rating on crop, g: rapeseed ([9]; 320 g/ha): 3 (Herbicidal rate of 40% or more and less than 70%) | effect on corn (c) ([10]; 3 weeks after application): 0 (Herbicidal rate of 5% or less (almost no effect)) | effect on soybean (d) ([11]; 3 weeks after application): 3 (Herbicidal rate of 40% or more and less than 70%) | effect on wheat (e) ([12]; 3 weeks after application): 0 (Herbicidal rate of 5% or less (almost no effect)) | effect on beet (f) ([13]; 3 weeks after application): 5 (Herbicidal rate of 90% or more (almost completely withered)) | effect on rapeseed (g) ([14]; 3 weeks after application): 5 (Herbicidal rate of 90% or more (almost completely withered))
